According to US10683382B2, “Copolymer comprising a lignin or lignin derivative and a poly(alkylene oxide) alkyl ether (meth)acrylate, and a hydrogel comprising the copolymer” (AGENCY FOR SCIENCE, TECHNOLOGY AND RESEARCH, priority 2015, dated 2020):

Test system: human dermal fibroblasts
Assay: MTT assay, cell viability
Format: cell-based
Details: 1, 5, 10 μM; up to 72 hours
Experimental: MTT assays were performed to assess the metabolic activity of human dermal fibroblasts. Human dermal fibroblasts were seeded in 96-well plates (Costar, USA) at a density of 1×10^4 cells/mL. After 24 hours of incubation, the medium was replaced by the Lig-PEG1, Lig-PEG2, Lig-PEG4, α-CD and P(PEGMA) (Mn=18 000 g/mol) aqueous solutions at concentrations of 10 μM, 5 μM and 1 μM, respectively. The cells were then incubated for 24 hours, 48 hours and 72 hours, respectively. After the designated time intervals, the wells were washed twice with 1×PBS buffer, and 100 μL of freshly prepared MTT (0.5 mg/mL) solution in culture medium was added to each well. The MTT medium solution was carefully removed after 3 hours incubation in the incubator. DMSO (100 μL) was then added into each well, and the plate was gently shaken for 10 minutes at room temperature to dissolve all precipitates formed. The absorbance of MTT at 570 nm was monitored by the microplate reader (Genios Tecan, Switzerland). Cell viability was expressed by the ratio of absorbance of the cells incubated with polymer solution to that of the cells incubated with culture medium only.

OC[C@H]1O[C@@H]2O[C@H]3[C@H](O)[C@@H](O)[C@@H](O[C@H]4[C@H](O)[C@@H](O)[C@@H](O[C@H]5[C@H](O)[C@@H](O)[C@@H](O[C@H]6[C@H](O)[C@@H](O)[C@@H](O[C@H]7[C@H](O)[C@@H](O)[C@@H](O[C@H]1[C@H](O)[C@H]2O)O[C@@H]7CO)O[C@@H]6CO)O[C@@H]5CO)O[C@@H]4CO)O[C@@H]3CO [α-CD, α-cyclodextrin]
cytotoxicity: no cytotoxicity
